# Values quoted from earlier work, collected in US9480645B2, “Omega-3 oil containing ophthalmic emulsions” (Abbott Medical Optics Inc., priority 2009, dated 2016).
# Conditions: generally as reported by the manufacturer of the commercial product
row,HLB,Substance
1,4.3,Sorbitan monooleate
2,6.7,Sorbitan monopalmitate
3,4.7,Sorbitan monostearate
